From ChEMBL document CHEMBL5579895, “Discovery of TYRA-300: First Oral Selective FGFR3 Inhibitor for the Treatment of Urothelial Cancers and Achondroplasia” (J Med Chem, 2024)
In brackets after ≈: the same amount, converted by molar mass.

How the values were obtained:
[1] = Half life in dog at 10 mg/kg, po measured for 24 hrs by LC-MS/MS analysis; format: ADME, organism-based, Canis lupus familiaris; settings: in vivo
[2] = Inhibition of cell viability in human UMUC14 cells harboring FGFR3 S249C mutant incubated for 72 to 120 hrs by Cell Titer Glo assay; format: functional, cell-based
[3] = Volume of distribution in monkey at 1 mg/kg, iv measured for 24 hrs by LC-MS/MS analysis; format: ADME, organism-based, Macaca mulatta; settings: rhesus monkey, in vivo
[4] = Cmax in Sprague-Dawley rat at 10 mg/kg, po measured for 24 hrs by LC-MS/MS analysis; format: ADME, organism-based; settings: in vivo
[5] = Stability in dog hepatocytes assessed as half life at 1 uM incubated upto 180 mins by LC-MS/MS analysis; format: ADME, cell-based, Canis lupus familiaris, Hepatocyte
[6] = target: Fibroblast growth factor receptor 3 (Homo sapiens, UniProt P22607, V555M); assay: Inhibition of FGFR3 V555M mutant (unknown origin) by mobility shift assay
Sequence of Fibroblast growth factor receptor 3 (Homo sapiens, UniProt P22607, V555M) (P22607 23-806 V555M limits assumed): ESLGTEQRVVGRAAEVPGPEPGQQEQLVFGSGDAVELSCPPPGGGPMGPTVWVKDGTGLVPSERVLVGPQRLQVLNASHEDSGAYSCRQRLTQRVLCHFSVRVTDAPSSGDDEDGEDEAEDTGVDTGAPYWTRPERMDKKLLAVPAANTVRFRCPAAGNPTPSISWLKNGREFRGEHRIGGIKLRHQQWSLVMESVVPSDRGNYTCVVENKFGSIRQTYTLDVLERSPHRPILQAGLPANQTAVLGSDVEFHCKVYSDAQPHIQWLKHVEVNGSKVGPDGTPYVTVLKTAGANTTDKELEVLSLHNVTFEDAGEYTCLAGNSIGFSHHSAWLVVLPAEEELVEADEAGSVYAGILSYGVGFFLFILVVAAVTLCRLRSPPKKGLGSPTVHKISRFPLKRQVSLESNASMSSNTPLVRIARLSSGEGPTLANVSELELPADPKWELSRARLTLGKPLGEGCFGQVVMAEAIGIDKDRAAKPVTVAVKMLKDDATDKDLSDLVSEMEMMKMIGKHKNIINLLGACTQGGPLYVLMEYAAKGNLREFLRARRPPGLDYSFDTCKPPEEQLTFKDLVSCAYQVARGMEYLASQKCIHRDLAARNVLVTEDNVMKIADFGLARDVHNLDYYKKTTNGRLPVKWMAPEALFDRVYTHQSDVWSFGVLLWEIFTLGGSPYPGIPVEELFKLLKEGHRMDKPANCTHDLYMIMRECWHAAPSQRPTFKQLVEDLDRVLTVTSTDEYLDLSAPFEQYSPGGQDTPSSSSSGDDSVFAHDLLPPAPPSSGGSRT

[7] = Oral bioavailability in Sprague-Dawley rat at 10 mg/kg measured for 24 hrs by LC-MS/MS analysis; format: ADME, organism-based; settings: in vivo
[8] = Inhibition of cell viability in human UMUC14 cells harboring FGFR3 V555M mutant incubated for 72 to 120 hrs by Cell Titer Glo assay; format: functional, cell-based
[9] = target: Fibroblast growth factor receptor 3 (Homo sapiens, UniProt P22607, N540K); assay: Inhibition of FGFR3 N540K mutant (unknown origin) by NanoBRET assay
Sequence of Fibroblast growth factor receptor 3 (Homo sapiens, UniProt P22607, N540K) (P22607 23-806 N540K limits assumed): as the sequence (P22607 23-806 V555M limits assumed) above, with N518K, M533V counted along it

[10] = target: Fibroblast growth factor receptor 3 (Homo sapiens, UniProt P22607); assay: Inhibition of wild-type FGFR3 (unknown origin) by NanoBRET assay
[11] = AUC (last) in Sprague-Dawley rat at 2 mg/kg, iv measured for 24 hrs by LC-MS/MS analysis; format: ADME, organism-based; settings: in vivo
[12] = Tmax in dog at 10 mg/kg, po measured for 24 hrs by LC-MS/MS analysis; format: ADME, organism-based, Canis lupus familiaris; settings: in vivo
[13] = Tmax in Sprague-Dawley rat at 10 mg/kg, po measured for 24 hrs by LC-MS/MS analysis; format: ADME, organism-based; settings: in vivo
[14] = target: Fibroblast growth factor receptor 3 (Homo sapiens, UniProt P22607, G380R); assay: Inhibition of FGFR3 G380R mutant (unknown origin) by NanoBRET assay
[15] = Cmax in monkey at 10 mg/kg, po measured for 24 hrs by LC-MS/MS analysis; format: ADME, organism-based, Macaca mulatta; settings: rhesus monkey, in vivo
[16] = Oral bioavailability in dog at 10 mg/kg measured for 24 hrs by LC-MS/MS analysis; format: ADME, organism-based, Canis lupus familiaris; settings: in vivo
[17] = Apparent permeability in human Caco-2 cells; format: ADME, cell-based
[18] = target: Leukocyte tyrosine kinase receptor (Homo sapiens, UniProt P29376); assay: Inhibition of human LTK by KINOMEscan analysis
[19] = Stability in human hepatocytes assessed as half life at 1 uM incubated upto 180 mins by LC-MS/MS analysis; format: ADME, cell-based, Hepatocyte
RT112/84 [20] = assay: animal or person; format: functional, Homo sapiens; settings: Mus musculus, RT112/84, 504 h, route po, time 21 day, read-out: TGI
Description: Antitumor activity against human RT112/84 cells harboring FGFR3/TACC3 fusion xenografted in Balb/c nude mouse model at 12.5 mg/kg, po bid treated for 21 days relative to control

[21] = target: Fibroblast growth factor receptor 2 (Homo sapiens, UniProt P21802); assay: Inhibition of human FGFR2 by KINOMEscan analysis
[22] = AUC (last) in monkey at 10 mg/kg, po measured for 24 hrs by LC-MS/MS analysis; format: ADME, organism-based, Macaca mulatta; settings: rhesus monkey, in vivo
RT112/84 [23] = assay: cells; format: functional, cell-based; settings: Homo sapiens
Description: Inhibition of cell viability in human RT112/84 cells harboring FGFR3 V555M mutant incubated for 72 to 120 hrs by Cell Titer Glo assay

[24] = target: Vascular endothelial growth factor receptor 2 (Homo sapiens, UniProt P35968); assay: Inhibition of human VEGFR2 at 100 nM by KINOMEscan analysis relative to control
[25] = Half life in monkey at 1 mg/kg, iv measured for 24 hrs by LC-MS/MS analysis; format: ADME, organism-based, Macaca mulatta; settings: rhesus monkey, in vivo
[26] = target: Tyrosine-protein kinase JAK3 (Homo sapiens, UniProt P52333); assay: Inhibition of human JAK3 by KINOMEscan analysis
Sequence of Tyrosine-protein kinase JAK3 (P52333 whole entry): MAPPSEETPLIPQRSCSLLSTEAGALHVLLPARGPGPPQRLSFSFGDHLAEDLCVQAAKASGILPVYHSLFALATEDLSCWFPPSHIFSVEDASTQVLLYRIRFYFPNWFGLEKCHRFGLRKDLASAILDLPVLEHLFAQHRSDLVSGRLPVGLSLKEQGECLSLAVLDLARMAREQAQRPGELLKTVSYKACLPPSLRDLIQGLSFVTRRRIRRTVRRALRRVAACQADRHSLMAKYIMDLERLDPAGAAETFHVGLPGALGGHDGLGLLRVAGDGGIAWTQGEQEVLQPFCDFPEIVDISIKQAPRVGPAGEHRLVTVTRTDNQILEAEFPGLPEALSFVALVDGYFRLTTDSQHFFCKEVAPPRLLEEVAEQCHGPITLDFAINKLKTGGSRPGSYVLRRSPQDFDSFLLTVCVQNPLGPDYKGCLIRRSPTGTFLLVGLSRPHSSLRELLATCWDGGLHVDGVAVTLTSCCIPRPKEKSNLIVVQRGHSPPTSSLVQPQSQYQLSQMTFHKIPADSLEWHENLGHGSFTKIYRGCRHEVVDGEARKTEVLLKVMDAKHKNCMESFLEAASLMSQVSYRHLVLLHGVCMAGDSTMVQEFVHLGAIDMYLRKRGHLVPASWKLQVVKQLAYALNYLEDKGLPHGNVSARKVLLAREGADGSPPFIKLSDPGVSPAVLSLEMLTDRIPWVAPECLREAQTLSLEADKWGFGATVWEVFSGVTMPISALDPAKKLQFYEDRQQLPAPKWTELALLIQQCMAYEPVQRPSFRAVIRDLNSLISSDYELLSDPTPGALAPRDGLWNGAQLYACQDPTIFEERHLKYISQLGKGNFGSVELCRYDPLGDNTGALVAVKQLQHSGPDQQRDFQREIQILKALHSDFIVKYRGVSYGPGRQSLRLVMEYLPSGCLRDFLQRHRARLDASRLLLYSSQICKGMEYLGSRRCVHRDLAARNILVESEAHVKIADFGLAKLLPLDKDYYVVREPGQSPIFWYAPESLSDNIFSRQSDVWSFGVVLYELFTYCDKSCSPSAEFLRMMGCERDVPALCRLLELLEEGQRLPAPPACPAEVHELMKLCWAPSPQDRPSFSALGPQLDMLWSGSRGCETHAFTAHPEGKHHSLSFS

[27] = Oral bioavailability in monkey at 10 mg/kg measured for 24 hrs by LC-MS/MS analysis; format: ADME, organism-based, Macaca mulatta; settings: rhesus monkey, in vivo
[28] = Stability in mouse hepatocytes assessed as half life at 1 uM incubated upto 180 mins by LC-MS/MS analysis; format: ADME, cell-based, Hepatocyte
[29] = target: Fibroblast growth factor receptor 4 (Homo sapiens, UniProt P22455); assay: Inhibition of human FGFR4 by KINOMEscan analysis
Sequence of Fibroblast growth factor receptor 4 (P22455 whole entry): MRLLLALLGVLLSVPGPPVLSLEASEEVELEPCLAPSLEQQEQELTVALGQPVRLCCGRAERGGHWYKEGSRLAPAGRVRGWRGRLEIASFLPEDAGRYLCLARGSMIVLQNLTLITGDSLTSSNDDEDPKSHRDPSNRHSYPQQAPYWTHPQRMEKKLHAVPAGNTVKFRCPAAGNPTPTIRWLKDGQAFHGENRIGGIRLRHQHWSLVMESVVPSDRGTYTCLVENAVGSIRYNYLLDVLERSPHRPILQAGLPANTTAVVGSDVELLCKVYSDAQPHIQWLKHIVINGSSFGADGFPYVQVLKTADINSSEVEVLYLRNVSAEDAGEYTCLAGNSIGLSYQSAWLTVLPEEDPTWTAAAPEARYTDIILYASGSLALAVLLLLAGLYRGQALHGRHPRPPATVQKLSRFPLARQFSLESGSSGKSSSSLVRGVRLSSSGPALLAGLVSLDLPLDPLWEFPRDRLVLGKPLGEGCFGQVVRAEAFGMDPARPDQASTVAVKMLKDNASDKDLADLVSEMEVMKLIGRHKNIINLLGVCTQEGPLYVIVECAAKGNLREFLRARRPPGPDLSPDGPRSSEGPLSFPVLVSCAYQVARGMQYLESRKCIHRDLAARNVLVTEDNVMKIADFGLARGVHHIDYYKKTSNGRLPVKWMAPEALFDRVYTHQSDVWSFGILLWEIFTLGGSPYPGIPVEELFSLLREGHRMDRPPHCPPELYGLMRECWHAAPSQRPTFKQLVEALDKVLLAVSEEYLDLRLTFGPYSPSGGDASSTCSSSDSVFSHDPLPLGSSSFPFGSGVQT

RT112/84 [30] = assay: animal or person; format: functional, Homo sapiens; settings: Mus musculus, RT112/84, 504 h, route po, time 21 day, read-out: TGI; remark: listed apart in the source
Description: Antitumor activity against human RT112/84 cells harboring FGFR3 V555M mutant xenografted in Balb/c nude mouse model at 12.5 mg/kg, po bid treated for 21 days relative to control

[31] = Volume of distribution in dog at 1 mg/kg, iv measured for 24 hrs by LC-MS/MS analysis; format: ADME, organism-based, Canis lupus familiaris; settings: in vivo
[32] = target: Fibroblast growth factor receptor 3 (Homo sapiens, UniProt P22607, K650M); assay: Inhibition of FGFR3 K650M mutant (unknown origin) by mobility shift assay
Sequence of Fibroblast growth factor receptor 3 (Homo sapiens, UniProt P22607, K650M) (P22607 23-806 K650M limits assumed): as the sequence (P22607 23-806 V555M limits assumed) above, with M533V, K628M counted along it

[33] = AUC (last) in dog at 10 mg/kg, po measured for 24 hrs by LC-MS/MS analysis; format: ADME, organism-based, Canis lupus familiaris; settings: in vivo
[34] = target: Vascular endothelial growth factor receptor 1 (Homo sapiens, UniProt P17948); assay: Inhibition of human FLT1 by KINOMEscan analysis
[35] = AUC (last) in Sprague-Dawley rat at 10 mg/kg, po measured for 24 hrs by LC-MS/MS analysis; format: ADME, organism-based; settings: in vivo
[36] = Half life in Sprague-Dawley rat at 2 mg/kg, iv measured for 24 hrs by LC-MS/MS analysis; format: ADME, organism-based; settings: in vivo
[37] = Stability in rat hepatocytes assessed as half life at 1 uM incubated upto 180 mins by LC-MS/MS analysis; format: ADME, cell-based, Hepatocyte
[38] = target: Fibroblast growth factor receptor 1 (Homo sapiens, UniProt P11362); assay: Inhibition of human FGFR1 by KINOMEscan analysis
Sequence of Fibroblast growth factor receptor 1 (P11362 whole entry): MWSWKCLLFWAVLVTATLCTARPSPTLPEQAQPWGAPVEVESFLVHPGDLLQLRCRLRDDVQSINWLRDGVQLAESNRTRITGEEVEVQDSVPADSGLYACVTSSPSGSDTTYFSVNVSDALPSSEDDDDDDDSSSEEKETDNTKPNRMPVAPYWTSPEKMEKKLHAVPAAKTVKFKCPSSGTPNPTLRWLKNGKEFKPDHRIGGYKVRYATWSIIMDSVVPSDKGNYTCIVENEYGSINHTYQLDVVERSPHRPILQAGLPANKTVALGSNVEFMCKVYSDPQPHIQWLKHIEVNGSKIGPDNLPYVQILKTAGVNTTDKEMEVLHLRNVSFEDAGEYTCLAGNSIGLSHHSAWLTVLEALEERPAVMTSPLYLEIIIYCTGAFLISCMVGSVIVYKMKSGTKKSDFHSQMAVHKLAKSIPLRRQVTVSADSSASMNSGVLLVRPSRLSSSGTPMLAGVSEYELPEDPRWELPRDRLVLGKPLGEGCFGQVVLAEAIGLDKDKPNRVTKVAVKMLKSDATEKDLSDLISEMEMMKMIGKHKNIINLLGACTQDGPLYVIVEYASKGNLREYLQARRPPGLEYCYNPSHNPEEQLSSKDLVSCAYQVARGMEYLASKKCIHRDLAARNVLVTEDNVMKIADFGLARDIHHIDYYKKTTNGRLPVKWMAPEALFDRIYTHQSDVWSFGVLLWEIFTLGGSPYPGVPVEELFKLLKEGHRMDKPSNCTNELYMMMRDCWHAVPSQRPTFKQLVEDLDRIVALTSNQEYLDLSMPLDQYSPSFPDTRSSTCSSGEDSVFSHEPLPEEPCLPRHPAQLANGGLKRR

[39] = AUC (last) in dog at 1 mg/kg, iv measured for 24 hrs by LC-MS/MS analysis; format: ADME, organism-based, Canis lupus familiaris; settings: in vivo
[40] = Cmax in dog at 10 mg/kg, po measured for 24 hrs by LC-MS/MS analysis; format: ADME, organism-based, Canis lupus familiaris; settings: in vivo
[41] = Thermodynamic solubility in FeSSIF; format: ADME; settings: read-out: Therm_solubility
RT-4 = assay: Inhibition of cell viability in human RT-4 cells harboring FGFR3/TACC3 fusion incubated for 72 to 120 hrs by Cell Titer Glo assay; format: functional, cell-based
[42] = AUC (last) in monkey at 1 mg/kg, iv measured for 24 hrs by LC-MS/MS analysis; format: ADME, organism-based, Macaca mulatta; settings: rhesus monkey, in vivo
[43] = Thermodynamic solubility in FaSSGF; format: ADME; settings: read-out: Therm_solubility
RT112/84 [44] = assay: cells; format: functional, cell-based; settings: Homo sapiens; remark: listed apart in the source
Description: Inhibition of cell viability in human RT112/84 cells harboring FGFR3/TACC3 fusion incubated for 72 to 120 hrs by Cell Titer Glo assay

[45] = Clearance in monkey at 1 mg/kg, iv measured for 24 hrs by LC-MS/MS analysis; format: ADME, organism-based, Macaca mulatta; settings: rhesus monkey, in vivo
[46] = Volume of distribution in Sprague-Dawley rat at 2 mg/kg, iv measured for 24 hrs by LC-MS/MS analysis; format: ADME, organism-based; settings: in vivo
DMS-114 = assay: Inhibition of cell viability in human DMS-114 cells harboring FGFR1-amplification incubated for 72 to 120 hrs by Cell Titer Glo assay; format: functional, cell-based

- half-life [1]: 24.8 h
- Vd [3]: 0.94 L/kg
- Cmax [4]: 802 ng/mL
- half-life at 1 µM [5]: > 1.67 h
- IC50 [6]: 0.002 µM
- bioavailability [7]: 39%
- IC50 [9]: 0.073 µM
- IC50 [10]: 0.021 µM
- AUC(0-t) at 24 h [11]: 1730 ng·h/mL
- Tmax [12]: 6 h
- Tmax [13]: 4 h
- IC50 [14]: 0.021 µM
- Cmax [15]: 1210 ng/mL
- bioavailability [16]: 98%
- Papp [17]: 1.1 ×10⁻⁶ cm/s
- IC50 [18]: 0.065 µM
- half-life at 1 µM [19]: > 1.67 h
- IC50 [21]: 0.007 µM
- AUC(0-t) at 24 h [22]: 15900 ng·h/mL
- IC50 (RT112/84 [23]): 0.017 µM
- inhibition [24]: < 90%
- half-life [25]: 1.17 h
- IC50 [26]: 0.206 µM
- bioavailability [27]: 106%
- half-life at 1 µM [28]: > 1.67 h
- IC50 [29]: 0.011 µM
- Vd [31]: 1.12 L/kg
- IC50 [32]: 0.0023 µM
- AUC(0-t) at 24 h [33]: 58300 ng·h/mL
- IC50 [34]: 0.201 µM
- AUC(0-t) at 24 h [35]: 3360 ng·h/mL
- half-life [36]: 1.93 h
- half-life at 1 µM [37]: 1.23 h
- IC50 [38]: 0.108 µM
- AUC(0-t) at 24 h [39]: 5930 ng·h/mL
- Cmax [40]: 3090 ng/mL
- solubility thermodynamic [41]: 514 µM (≈ 288 µg/mL)
- AUC(0-t) at 24 h [42]: 1500 ng·h/mL
- solubility thermodynamic [43]: 34 µM (≈ 19 µg/mL)
- IC50 (RT112/84 [44]): 0.009 µM
- clearance [45]: 11.1 mL/min/kg
- Vd [46]: 2.5 L/kg
SMILES: C[C@@H](Oc1ccc2[nH]nc(-c3ccc(N4CC5(C4)CN(S(C)(=O)=O)C5)nc3)c2c1)c1c(Cl)cncc1Cl
- IC50 [2]: 0.016 µM
- IC50 [8]: 0.021 µM
- inhibition in vivo at 12.5 mg/kg (RT112/84 [20]): 95%
- inhibition in vivo at 12.5 mg/kg (RT112/84 [30]): 77%
- IC50 (RT-4): 0.01 µM
- IC50 (DMS-114): 0.205 µM
